In PubChem BioAssay (NCI):
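Five compound concentrations were applied to cells in 96-well plates for 48 hours; endpoints were derived by simple linear interpolation of the resulting dose-response curve. TGI: total growth inhibition.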

Columns and labels:
Assay in all cases: DTP human tumour cell line panel, 48 h
RXF 393 renal = system: RXF 393 renal
SK-MEL-5 melanoma = system: SK-MEL-5 melanoma
U251 CNS = system: U251 CNS
A498 renal = system: A498 renal
PC-3 prostate = system: PC-3 prostate
ACHN renal = system: ACHN renal
HS 578T breast = system: HS 578T breast
T-47D breast = system: T-47D breast
SK-MEL-2 melanoma = system: SK-MEL-2 melanoma
SN12C renal = system: SN12C renal
HOP-62 NSCLC = system: HOP-62 NSCLC
SW-620 colon = system: SW-620 colon
MDA-MB-435 = system: MDA-MB-435
UACC-62 melanoma = system: UACC-62 melanoma
IGROV1 ovarian = system: IGROV1 ovarian
HCT-116 colon = system: HCT-116 colon
786-0 renal = system: 786-0 renal
MDA-N = system: MDA-N
LOX IMVI melanoma = system: LOX IMVI melanoma
HT29 colon = system: HT29 colon
SR leukemia = system: SR leukemia
MALME-3M melanoma = system: MALME-3M melanoma
COLO 205 colon = system: COLO 205 colon
SF-268 CNS = system: SF-268 CNS
NCI-H226 lung = system: NCI-H226 lung
OVCAR-4 ovarian = system: OVCAR-4 ovarian
HL-60(TB) leukemia = system: HL-60(TB) leukemia
HOP-92 NSCLC = system: HOP-92 NSCLC
SK-MEL-28 melanoma = system: SK-MEL-28 melanoma
SF-295 CNS = system: SF-295 CNS
K-562 leukemia = system: K-562 leukemia
MOLT-4 leukemia = system: MOLT-4 leukemia
SF-539 CNS = system: SF-539 CNS
MCF7 breast = system: MCF7 breast
NCI-H23 lung = system: NCI-H23 lung
TK-10 renal = system: TK-10 renal
NCI/ADR-RES ovarian = system: NCI/ADR-RES ovarian
CCRF-CEM leukemia = system: CCRF-CEM leukemia
KM12 colon = system: KM12 colon
SK-OV-3 ovarian = system: SK-OV-3 ovarian
SNB-75 CNS = system: SNB-75 CNS
CAKI-1 renal = system: CAKI-1 renal
RPMI-8226 leukemia = system: RPMI-8226 leukemia
BT-549 breast = system: BT-549 breast
DU-145 prostate = system: DU-145 prostate
UO-31 renal = system: UO-31 renal
SNB-19 CNS = system: SNB-19 CNS
UACC-257 melanoma = system: UACC-257 melanoma
A549 NSCLC = system: A549 NSCLC
OVCAR-5 ovarian = system: OVCAR-5 ovarian
M14 melanoma = system: M14 melanoma
NCI-H460 lung = system: NCI-H460 lung
OVCAR-3 ovarian = system: OVCAR-3 ovarian
HCT-15 colon = system: HCT-15 colon
OVCAR-8 ovarian = system: OVCAR-8 ovarian
MDA-MB-231 breast = system: MDA-MB-231 breast
EKVX NSCLC = system: EKVX NSCLC
NCI-H522 lung = system: NCI-H522 lung
HCC-2998 colon = system: HCC-2998 colon

O[C@@H]1C=C[C@]23CCN(Cc4cc5c(cc42)OCO5)[C@@H]3C1
TGI (RXF 393 renal): > 100 µM | TGI (SK-MEL-5 melanoma): > 100 µM | TGI (U251 CNS): > 100 µM | TGI (A498 renal): > 100 µM | TGI (PC-3 prostate): > 100 µM | TGI (ACHN renal): > 100 µM | TGI (HS 578T breast): > 100 µM | TGI (T-47D breast): > 100 µM | TGI (SK-MEL-2 melanoma): > 100 µM | TGI (SN12C renal): > 100 µM | TGI (HOP-62 NSCLC): > 100 µM | TGI (SW-620 colon): > 100 µM | TGI (MDA-MB-435): > 100 µM | TGI (UACC-62 melanoma): > 100 µM | TGI (IGROV1 ovarian): > 100 µM | TGI (HCT-116 colon): > 100 µM | TGI (786-0 renal): > 100 µM | TGI (MDA-N): > 100 µM | TGI (LOX IMVI melanoma): > 100 µM | TGI (HT29 colon): > 100 µM | TGI (SR leukemia): > 100 µM | TGI (MALME-3M melanoma): > 100 µM | TGI (COLO 205 colon): > 100 µM | TGI (SF-268 CNS): > 100 µM | TGI (NCI-H226 lung): > 100 µM | TGI (OVCAR-4 ovarian): > 100 µM | TGI (HL-60(TB) leukemia): > 100 µM | TGI (HOP-92 NSCLC): > 100 µM | TGI (SK-MEL-28 melanoma): > 100 µM | TGI (SF-295 CNS): > 100 µM | TGI (K-562 leukemia): > 100 µM | TGI (MOLT-4 leukemia): > 100 µM | TGI (SF-539 CNS): > 100 µM | TGI (MCF7 breast): > 100 µM | TGI (NCI-H23 lung): > 100 µM | TGI (TK-10 renal): > 100 µM | TGI (NCI/ADR-RES ovarian): > 100 µM | TGI (CCRF-CEM leukemia): > 100 µM | TGI (KM12 colon): > 100 µM | TGI (SK-OV-3 ovarian): > 100 µM | TGI (SNB-75 CNS): > 100 µM | TGI (CAKI-1 renal): > 100 µM | TGI (RPMI-8226 leukemia): > 100 µM | TGI (BT-549 breast): > 100 µM | TGI (DU-145 prostate): > 100 µM | TGI (UO-31 renal): > 100 µM | TGI (SNB-19 CNS): > 100 µM | TGI (UACC-257 melanoma): > 100 µM | TGI (A549 NSCLC): > 100 µM | TGI (OVCAR-5 ovarian): > 100 µM | TGI (M14 melanoma): > 100 µM | TGI (NCI-H460 lung): > 100 µM | TGI (OVCAR-3 ovarian): > 100 µM | TGI (HCT-15 colon): > 100 µM | TGI (OVCAR-8 ovarian): > 100 µM | TGI (MDA-MB-231 breast): > 100 µM | TGI (EKVX NSCLC): > 100 µM | TGI (NCI-H522 lung): > 100 µM

CN(C)Cc1ccc(-c2cc3onc(-c4ccccc4)c3c(=O)n2C)cc1
TGI (SK-MEL-5 melanoma): 47.1 µM | TGI (U251 CNS): 64.8 µM | TGI (A498 renal): 56.9 µM | TGI (PC-3 prostate): > 100 µM | TGI (ACHN renal): > 100 µM | TGI (HS 578T breast): 46.2 µM | TGI (T-47D breast): 58.4 µM | TGI (SK-MEL-2 melanoma): 78.8 µM | TGI (SN12C renal): > 100 µM | TGI (HOP-62 NSCLC): 41.3 µM | TGI (SW-620 colon): 65.1 µM | TGI (MDA-MB-435): 59.8 µM | TGI (UACC-62 melanoma): 75 µM | TGI (IGROV1 ovarian): > 100 µM | TGI (HCT-116 colon): 30.3 µM | TGI (786-0 renal): 35 µM | TGI (MDA-N): 44.5 µM | TGI (LOX IMVI melanoma): 49.8 µM | TGI (HT29 colon): 29.8 µM | TGI (SR leukemia): 34 µM | TGI (MALME-3M melanoma): 72.5 µM | TGI (COLO 205 colon): 41.1 µM | TGI (SF-268 CNS): > 100 µM | TGI (NCI-H226 lung): > 100 µM | TGI (OVCAR-4 ovarian): > 100 µM | TGI (HL-60(TB) leukemia): 4.56 µM | TGI (HOP-92 NSCLC): 87.6 µM | TGI (SK-MEL-28 melanoma): 41.2 µM | TGI (SF-295 CNS): 46.5 µM | TGI (K-562 leukemia): 74.2 µM | TGI (MOLT-4 leukemia): 49.2 µM | TGI (SF-539 CNS): 46.8 µM | TGI (MCF7 breast): > 100 µM | TGI (NCI-H23 lung): > 100 µM | TGI (TK-10 renal): 53.1 µM | TGI (NCI/ADR-RES ovarian): > 100 µM | TGI (KM12 colon): 43.8 µM | TGI (SK-OV-3 ovarian): > 100 µM | TGI (CAKI-1 renal): > 100 µM | TGI (RPMI-8226 leukemia): 54.9 µM | TGI (BT-549 breast): > 100 µM | TGI (DU-145 prostate): 85.3 µM | TGI (UO-31 renal): 26.6 µM | TGI (SNB-19 CNS): > 100 µM | TGI (UACC-257 melanoma): 35.6 µM | TGI (A549 NSCLC): 36.9 µM | TGI (OVCAR-5 ovarian): > 100 µM | TGI (M14 melanoma): 30.7 µM | TGI (NCI-H460 lung): 32.3 µM | TGI (OVCAR-3 ovarian): > 100 µM | TGI (HCT-15 colon): 50.2 µM | TGI (OVCAR-8 ovarian): > 100 µM | TGI (MDA-MB-231 breast): > 100 µM | TGI (EKVX NSCLC): > 100 µM | TGI (NCI-H522 lung): 39.5 µM

Cc1cn(C2CCC(CO)(CF)O2)c(=O)[nH]c1=O (stereo unspecified)
TGI (RXF 393 renal): > 100 µM | TGI (SK-MEL-5 melanoma): > 100 µM | TGI (U251 CNS): > 100 µM | TGI (A498 renal): > 100 µM | TGI (PC-3 prostate): > 100 µM | TGI (ACHN renal): > 100 µM | TGI (HS 578T breast): > 100 µM | TGI (T-47D breast): > 100 µM | TGI (SK-MEL-2 melanoma): > 100 µM | TGI (SN12C renal): > 100 µM | TGI (HOP-62 NSCLC): > 100 µM | TGI (SW-620 colon): > 100 µM | TGI (MDA-MB-435): > 100 µM | TGI (UACC-62 melanoma): > 100 µM | TGI (IGROV1 ovarian): > 100 µM | TGI (HCT-116 colon): > 100 µM | TGI (786-0 renal): > 100 µM | TGI (MDA-N): > 100 µM | TGI (LOX IMVI melanoma): > 100 µM | TGI (HT29 colon): > 100 µM | TGI (SR leukemia): > 100 µM | TGI (COLO 205 colon): > 100 µM | TGI (SF-268 CNS): > 100 µM | TGI (NCI-H226 lung): > 100 µM | TGI (OVCAR-4 ovarian): > 100 µM | TGI (HL-60(TB) leukemia): > 100 µM | TGI (HOP-92 NSCLC): > 100 µM | TGI (SK-MEL-28 melanoma): > 100 µM | TGI (SF-295 CNS): > 100 µM | TGI (K-562 leukemia): > 100 µM | TGI (MOLT-4 leukemia): > 100 µM | TGI (SF-539 CNS): > 100 µM | TGI (MCF7 breast): > 100 µM | TGI (NCI-H23 lung): > 100 µM | TGI (TK-10 renal): > 100 µM | TGI (NCI/ADR-RES ovarian): > 100 µM | TGI (CCRF-CEM leukemia): > 100 µM | TGI (KM12 colon): > 100 µM | TGI (SK-OV-3 ovarian): > 100 µM | TGI (SNB-75 CNS): > 100 µM | TGI (CAKI-1 renal): > 100 µM | TGI (RPMI-8226 leukemia): > 100 µM | TGI (BT-549 breast): > 100 µM | TGI (DU-145 prostate): > 100 µM | TGI (UO-31 renal): > 100 µM | TGI (SNB-19 CNS): > 100 µM | TGI (HCC-2998 colon): > 100 µM | TGI (UACC-257 melanoma): > 100 µM | TGI (A549 NSCLC): > 100 µM | TGI (OVCAR-5 ovarian): > 100 µM | TGI (M14 melanoma): > 100 µM | TGI (NCI-H460 lung): > 100 µM | TGI (OVCAR-3 ovarian): > 100 µM | TGI (HCT-15 colon): > 100 µM | TGI (OVCAR-8 ovarian): > 100 µM | TGI (MDA-MB-231 breast): > 100 µM | TGI (EKVX NSCLC): > 100 µM | TGI (NCI-H522 lung): > 100 µM
